# Test results published in publication PMC12037037 (Proceedings of the National Academy of Sciences of the …, 2025).
# Assays:
# [1] = test system: panel of 55 central nervous system targets; assay: Competitive radioligand binding selectivity panel (Eurofins Discovery)
# Protocol: Figure S3. Selectivity profiles for (+)-JRT and (–)-JRT across 55 central nervous system targets. The effects of (+)- JRT (10 μM) and (–)-JRT (10 μM) on a wide range of targets were assessed by Eurofins Discovery. Data represent % inhibition of the binding of a radioactively labeled ligand specific for each target. Assays were conducted in duplicate and the results were averaged.
# Data Analysis and Statistics. Treatments were randomized, and data were analyzed by experimenters blinded to treatment conditions. Statistical analyses were performed using GraphPad Prism (version 10.0.3) unless noted otherwise.
# All comparisons were planned prior to performing each experiment. No data were excluded. Data are represented as mean ± SEM, unless noted otherwise, with asterisks indicating *p < 0.05, **p < 0.01, ***p < 0.001, and ****p < 0.0001. Details of all statistical tests are shown in SI Appendix, Table S1. […]
# Both (+)-JRT and (–)-
# JRT were synthesized in-house and judged to be analytically pure based on NMR and LC-MS data. For cell culture experiments, VEH = 0.1% (agonist studies) or 0.2% (antagonist studies) molecular biology grade dimethyl sulfoxide (Sigma-Aldrich). For in vivo experiments, compounds were administered i.p. at 5 mL/kg using 0.9% saline as the vehicle, unless noted otherwise. VEH = USP grade saline (0.9%). Stock solutions for behavioral assays were prepared fresh before use.
# Fumarate salts of (+)-JRT and (–)-JRT were used for all biological studies unless noted otherwise.
# Animals. All experimental procedures involving animals were approved by the Institutional Animal Care and Use Committee (IACUC) at the University of California, Davis, the Salk Institute, Weill Cornell Medicine, McLean Hospital (Harvard Medical School), or the Contract Research Organization (CRO) where the study was performed. All procedures involving animals adhered to principles described in the National Institutes of Health Guide for the Care and Use of Laboratory Animals.
# Animals were either obtained from Jackson Laboratory (Sacramento, C.A.) or bred in-house unless noted otherwise. Power analyses were conducted to ensure appropriate sample sizes for all experiments involving animals. Animals were housed 2–5 animals of the same sex per cage on a 12h light/dark cycle and were given ad libitum access to food and water unless noted otherwise. The University of California, Davis, the Salk Institute, and Weill Cornell Medicine are accredited by the Association for Assessment and Accreditation of Laboratory Animal Care International (AAALAC). Whenever possible, both sexes were utilized. However, a single sex was utilized in some cases when 1) a contract research organization had only […]
# Radioligand Binding Selectivity Panel. Competitive radioligand binding studies for (+)-JRT (10 μM) and (–)-JRT (10 μM) were performed across a panel of receptors at Eurofins Discovery. Experiments were performed using the free bases of […]
# radioligand and source of receptor (5,6,7,8,9,10,11,12).
# Radioligand Binding Assays (5-HT2AR and 5-HT2CR). The 5-HT2AR and 5-HT2CR competitive radioligand binding assays were performed at Epics Therapeutics S.A. (Belgium, FAST-0505B) using conventional methods. Experiments were performed using the free bases of (+)-JRT and (–)-JRT. […] Nonspecific binding was determined by co-incubation with 200-fold excess of cold competitor DOI. […]
# C57BL/6J mice = assay: Amphetamine-induced locomotion; format: in vivo; settings: (+)-JRT 1 mg/kg + AMPH 3 mg/kg
# Protocol: Figure S11. […] (A) Pretreatment with (+)-JRT (1 mg/kg,
# IP) can block AMPH-induced hyperlocomotion in female, but not male, mice. (B) Pretreatment with (+)-JRT (1 mg/kg, IP) […]
# AMPH = (+)-amphetamine; PCP = phencyclidine; VEH = vehicle; ns = not significant. *p < 0.05, **p < 0.01, ***p < 0.001, ****p < 0.0001, as compared to the comparator(s) indicated by a horizontal bar. See Methods and SI Appendix, Table S1 for full details on statistics.
# (1 picture or pasted object on this page, not shown here)
# Amphetamine-Induced Locomotion. The amphetamine-induced hyperlocomotion assay was performed using male and female C57BL/6J mice that were approximately 8 weeks old at the time of the experiments. Animals were first placed in the test arena (40 cm x 40 cm) for 15 min to obtain a basal reading of locomotion and habituate them to the testing arena.
# Next, animals were administered (+)-JRT (1 mg/kg) or VEH (2.5 mL/kg, i.p) and placed back in the test arena. After 15 min, the animals were administered (+)-amphetamine (3 mg/kg) or VEH (2.5 mL/kg) and placed back in the test arena for 60 minutes. Locomotion during the entire experiment was quantified using ANYmaze Video Tracking System, version 7.07 (Stoelting Co.). The test arena was cleaned thoroughly with 70% ethanol between trials. […]
# Reads were aligned to the GRCm39 genome assembly using STAR, processed with Picard, and counted with the Subread software. Transcript inclusion criteria consisted of a minimum raw expression level of 25 transcripts in a minimum of 4 samples. Surrogate variable analysis was conducted with the sva package 2023 release v3.5.0 in R and normalization and differential expression analysis was performed with DESeq2 v4.3 with a baseMean threshold of 10. Heatmaps were created with the pheatmap v1.0.12 with sample-wise z-scores plotted and both row and column grouping allowed using pearson's distances and ward.D for clustering. Gene-wise selection criteria for heatmaps were a baseMean expression threshold of 50 to focus on robustly expressed genes, p value < 0.05, and presence in the top 250 genes sorted by absolute value of log2FC. Additionally, z score was capped at 2 for visualization purposes. Schizophrenia gene sets were extracted from a recent TWAS study (30).
# For Figure S8G, the TWAS set was filtered for FDR < 0.01. Permutation testing was conducted to quantify the overlap of top genes from schizophrenia TWAS with the perm_test function from the bulkWarehouse package 2023 release v1.2.7.
# Briefly, the intersection of top differentially expressed genes and top TWAS genes is compared to an empirical distribution created by calculating the intersection with our top DEGs when randomly sampling candidate genes from our dataset equal to the size of the TWAS sample. […]
smiles,measurement,setting,value
CCN(CC)C(=O)[C@@H]1C=C2c3cccc4ccn(c34)C[C@H]2N(C)C1 [(+)-JRT],Selectivity across panel of 55 central nervous system targets,"[1]; 10 μM, free bases",highly selective for a subset of serotonin receptors
same,"Affinity for dopamine, histamine, or adrenergic receptors","[1]; radioligand binding, unlike LSD",neither of these compounds exhibited affinity
same,"Affinity for dopamine, histamine, muscarinic, and adrenergic receptors",[1]; unlike CLZ,lacks affinity
same,Locomotion (Figure 11A Females),"C57BL/6J mice; female mice, VEH + VEH 101.9 ± 15.04",217.2 ± 47.70
same,Locomotion (Figure 11A Males),"C57BL/6J mice; male mice, VEH + VEH 59.80 ± 4.206",361.2 ± 35.54
